From patent publication US20140343050A1, “PRODRUGS OF D-ISOGLUTAMYL-[D/L]-TRYPTOPHAN” (APTOEX TECHNOLOGIES, INC., priority 2011, published 2014)

Key:
[1] = Pharmacokinetic study in rats, oral bioavailability (plasma Apo805); assay type: in vivo; conditions: male Sprague-Dawley rats, oral 5 mg/kg, in words
Protocol: Groups of five male Sprague-Dawley rats weighing 250 to 300 g were utilized per dosing group. One day prior to dosing, venous and arterial catheters (made of 20 cm long polyurethane coiled tubing, and filled with 100 units/mL heparinized saline) were implanted into the jugular vein and carotid artery of each rat. Rats were fasted overnight prior to oral dosing and fed approximately 2 hours post-dosing. All dosing and blood sampling was performed on fully conscious rats. Tested compounds were administered either by oral gavage as solutions in water, or by intravenous injection (Apo805K1 only) as solution in 0.9% sodium chloride, final pH 7.0, at doses equivalent to 5 mg/kg (per Apo805 content). Blood (0.3 mL) was sampled from each animal from the carotid artery for up to 30 hours post-dosing, each sampling followed by an equivalent naive-blood replacement. […]
A Sciex API 365 LC/MS/MS […] equipped with Ionics EP10+ and HSID, was used, A chiral column (Supelco-Astec CHIROBIOTIC™ TAG), 100×2.1 mm, 5 μm was used at ambient temperature. […] Samples were analysed for the concentration of Apo805 (thymodepressin).
Non-compartmental analysis was performed using WinNonlin 52 software, on individual animal data. Bioavailability was calculated as a ratio of AUCINF—D after oral dosing of test compound to AUCINF—D after IV dosing of Apo805K1. […]

[2] = tested on: human hepatocytes; assay: Biotransformation to Apo805 in human hepatocytes; conditions: for Half-life for bioconversion to Apo805 (h), Human hepatocytes: 100 μM prodrug, pooled cryopreserved human hepatocytes
Protocol: LiverPool® cryopreserved human hepatocytes (pooled from 10 male donors) was obtained from Celsis In Vitro Technologies. The hepatocytes were stored in liquid nitrogen until used. Just before the assay, the hepatocytes were quickly thawed at 37° C. and centrifuged at 100×g for 10 min. The media was removed and cells were re-suspended in PBS at a density of 4×10^6 cells/mL. […] After 10, 20, 60, 120 and 240 min of incubation, the reaction was quenched by adding an equal volume of 5% (w/v) TCA. The “time 0” sample was generated by adding TCA before the test compound. After brief vortexing and 10-min incubation on ice, samples were centrifuged (16,000×g, 10 min) and the supernatants were analyzed by HPLC with UV detection.
(§1) HPLC analysis was done using an Agilent 1100 series HPLC system consisting of a programmable multi-channel pump, auto-injector, vacuum degasser and HP detector controlled by Agilent HPLC218 Chem Station Rev.A.09.03 software for data acquisition and analysis. A gradient method was used for the determination of all pro-drugs and their hydrolysis products including Apo805 on an Agilent Eclipse XDB, C18 column (part #963967-902, 150×4.6 mm, 3.5 μm) with the following chromatographic conditions: • Temperature: Ambient • Mobile phase: A=Aqueous phase: 10 mM Tris-HCl, 2 mM EDTA, pH 7.4 B=Organic phase: Acetonitrile • Gradient method: Time: 0 min 5% B, 25 min 50% B, 35 min 80% B, 45 min 5% B, 50 min 5% B. • Mobile phase flow rate: 1.0 mL/min • Injection volume: 50 μL • Data acquisition time: 30 min • Detection wavelength: 280 nm; 4 nm bandwidth, ref. 360 nm, • 4 nm bandwidth The chromatograms at λ=280 nm were analyzed. Peak area (mAU*s) was used for quantitation of pro-drugs, intermediates and thymodepressin (Apo805).

[3] = Stability / bioconversion to Apo805 in human blood; conditions: 100 μM prodrug, pooled human blood, 37° C.
From the text: as §1
Blood was collected from healthy volunteers, both male and female, in Becton Dickinson ACD Vacutainer™ containing ACD solution A (22.0 g/L trisodium citrate, 8.0 g/L citric acid, 24.5 g/L dextrose). […] After 10-min incubation on ice, samples were centrifuged (16,000×g, 10 min) and the supernatants were analyzed by HPLC.

| Structure (SMILES) | oral bioavailability in rats [1] | Half-life for bioconversion to Apo805 (h), Human hepatocytes [2] [h] | Half-life for bioconversion to Apo805 (h), Human blood [3] [h] | other results |
| --- | --- | --- | --- | --- |
| CC(C)(C)C(=O)OCOC(=O)[C@@H](Cc1c[nH]c2ccccc12)NC(=O)CC[C@@H](N)C(=O)O [Apo839, H-D-Glu(D-Trp-OCH2O—CO—C(CH3)3)—OH] | show oral bioavailability | – | – | – |
| CCOC(=O)[C@@H](Cc1c[nH]c2ccccc12)NC(=O)CC[C@@H](N)C(=O)O [Apo835, H-D-Glu(D-Trp-OEt)-OH, reference compound] | – | > 2.0 | >24 | percent conversion to Apo805 within indicated time, Human hepatocytes ([2]; in 2 h): 11% |
| CN(C)C(=O)COC(=O)[C@@H](Cc1c[nH]c2ccccc12)NC(=O)CC[C@@H](N)C(=O)O [Apo893, H-D-Glu(D-Trp-O—CH2CO—N(CH3)2)—OH] | – | – | – | biotransformation to thymodepressin (Apo805) in human hepatocytes ([2]; in words): not readily converted to thymodepressin |
| N[C@H](CCC(=O)N[C@@H](Cc1c[nH]c2ccccc12)C(=O)O)C(=O)OCCC(F)(F)F [Apo886] | – | 4.6 | 5.9 | – |
| CC(OC(=O)OC1CCCCC1)OC(=O)[C@@H](Cc1c[nH]c2ccccc12)NC(=O)CC[C@@H](N)C(=O)O (stereo partly drawn) [Apo843, H-D-Glu(D-Trp-O—CH(CH3)—O—CO—O-cyclohexyl)-OH] | show oral bioavailability | – | – | – |
